How the values were obtained:
[1] = system: primary neonatal cardiomyocytes; assay: Morphometric analysis of stimulated primary neonatal cardiomyocytes (cell area, length:width ratio); assay type: cell-based; details: 24 hours stimulation, PE 100 μM; for cell areas increases: versus serum-free control
Experimental: FIGS. 1A and 1B. Morphometric analysis of primary cardiomyocytes stimulated with human Cardiotrophin-1 (hCT1) and/or the hypertrophy agonist Phenylephrine (PE).
Phenylephrine (PE) was used as a pathological adaptive compensation control as it is a known target of the stress-activated G-protein coupled alpha (α)-adrenergic pathway. Primary neonatal cardiomyocytes were stimulated for 24 hours with hCT1 (0.5 nM), PE (100 μM), the combination of hCT1 and PE, or control serum-free (SF) media followed by morphometric analysis (cell area and length:width ratio) (FIG. 1A). […] This CT-1 mediated growth is typical of the cardiomyocyte adaptations that occur during physiologic adaptive compensation with an L:W ratio that is divergent from PE induced growth.

[2] = system: rats; assay: In vivo growth reversal analysis (ECHO, HW:BW, CD31 capillary density) after 2 week delivery and follow-on; parameters: species or system rat; details: for ventricle wall thickness at 2 weeks: CT-1 6 μg/kg/hr or PE 10 mg/kg/day for 2 weeks
From the text: (§1) FIGS. 3A, 3B, and 3C. […] Arrows (in upper panels) point to myocardial wall (RVLW). Dotted lines (in lower panels) show inner ventricle chambers.
FIGS. 4A and 4B. Beneficial/physiologic cardiac adaptive compensation and reversion to baseline cardiac dimensions is observed upon 2 weeks of hCT1 administration in vivo followed by hCT1 withdrawal for 4 weeks. Identical follow-on procedure and analysis as conducted in FIG. 3 above. FIG. 4A Whole hearts and Hematoxylin & Eosin (H & E) stained sections and quantification of the heart weight to body weight (HW:BW) ratio 6 weeks post-treatment with hCT1 or PE.
(§2) CT-1 was tested in vivo to determine whether its administration would induce a myocardial adaptive remodeling characteristic of physiologic compensation (FIGS. 3A, 3B, and 3C). Osmotic minipumps containing PBS control (Ctrl) or hCT1 (6 μg/kg/hr) or Isoproterenol (ISO, 1 mg/kg/day) were implanted subcutaneously in rats. ISO is a beta-adrenergic receptor agonist and continuous infusion with ISO in rats is known to induce pathological cardiac hypertrophy and cardiomyocyte damage (in both the right and left ventricles) which progresses to heart failure (Morisco et al (2001) J Mol Cell Cardiol 33:561-573 and Grimm et al (1998) Cardiovascular Research 37:91-100). After 2 weeks of treatment, M-mode ECHO analysis was used to assess myocardial structure/function (FIG. 3A). In this model, an increased right ventricle lateral wall (RVLW) thickness indicates the presence of myocardiocytes growth, and an increased ratio of the right to left ventricle internal diameters (RVID/LVID) is an indicator of pathologic hypertrophy. An increased RVLW thickness but constant or reduced RVID:LVID ratio is an indicator of adaptive compensatory RV remodeling. Both hCT1 and ISO induced a significant increase in RVLW thickness (12% and 32% fold increase, respectively) compared to control rats (n=3; * and **, P<0.05). […] An in vivo growth reversal analysis was also conducted. Following a 2 week delivery of CT-1 protein (6 μg/kg/hr) or PE (10 mg/kg/day) as the pathologic control in this case, animals were then assessed for cardiac structure/function at a 6 week follow-on period. […] Collectively, these studies support the contention that CT-1 elicits a reversible physiologic cardiac adaptive compensation.

[3] = system: Mef2; assay: Mef2 luciferase reporter in primary neonatal cardiomyocytes; assay type: cell-based; details: hCT1 0.5 nM; for Mef2 activation after 24 hrs: PE 100 μM, PAC-1 25 μM
Experimental: FIGS. 6A, 6B, and 6C. Stimulation with hCT1 causes sustained activation of NF-κB and Stat3 with limited activation of Mef2, as well as limited Nfat activation; the latter two indices are distinct expression patterns from pathologic hypertrophic stimulation. FIG. 6A Primary neonatal cardiomyocytes were transfected with luciferase reporter plasmids (NF-κB or Mef2), as indicators of hypertrophic activity. Luciferase activity was measured after treatments for 24 hrs with: hCT1 (0.5 nM), PE (100 μM), or procaspase 3 activating compound 1, PAC-1 (25 μM) (left). Treatments at early timepoints (30 min, 1 hr, and 3 hr) were also conducted for hCT1 (right). FIG. 6B Primary neonatal cardiomyocytes were transfected with a luciferase reporter plasmid for Stat3. Luciferase activity was measured after treatments for 24 hrs with: hCT1 (0.5 nM), PE (100 μM), or procaspase 3 activating compound 1, PAC-1 (25 μM) (left) and at earlier time points (right). FIG. 6C Primary neonatal cardiomyocytes were infected with a luciferase-based Nfat reporter Adenovirus (Nfat-AdV). Luciferase activity was measured after treatments for 24 hrs with: hCT1 (0.5 nM), PE (100 μM), or procaspase 3 activating compound 1, PAC-1 (25 μM) (left) and at earlier time points (right)
The signaling pathways that CT-1 engages in mediating physiologic adaptive compensatory remodeling were examined. The applicants predicted that cardiomyocyte adaptive remodeling mediated by CT-1 results (in part) from the induction of a specific transcriptional program, which is distinct from that of pathologic hypertrophic response. To address this hypothesis, the applicants tested the activity of two well-known transcription factor families that have been linked to both physiologic and pathologic cardiomyocyte growth, the Mef2 (Kolodziejczyk et al. 1999 Curr Biol. 9, 1203-1206; Kim et al. 2008, J Clin Invest. 118, 124-132.) and the NF-κB family (Gordon et al. 2011, Circ Res. 108, 1122-1132). Primary neonatal cardiomyocytes were transfected with luciferase reporter plasmids (NF-κB and Mef2) to be used as a read out of transcriptional activity. Luciferase activity was determined after treatments for 24 hrs with: hCT1 (0.5 nM), PE (100 μM), or procaspase 3 activating compound 1, PAC-1 (25 μM). […] This pattern of transcription factor activation was distinct from that induced by PE and by the caspase 3 specific activating compound PAC-1.

[4] = system: rats; assay: M-mode ECHO after 2 weeks of osmotic minipump delivery in rats; assay type: in vivo, rat; details: hCT1 6 μg/kg/hr
Experimental: as §1, §2

[5] = 2 week delivery, 6 week follow-on

Molecule | L:W ratio, in words [1] | cell areas increases ([1]; hCT1 0.5 nM) [%] | RVID/LVID ratio at 6 weeks post-treatment compared to control rats [2, 5] | heart weight to body weight ratio at 6 weeks post-treatment [2, 5] | wall thickness / cardiac dimensions at 6 weeks post-treatment [2, 5] | cardiac capillary density (CD31 immunostained right ventricle sections) ([2]; 6 weeks post-treatment, compared to CT-1 treated and control animals) | ventricle wall thickness at 2 weeks [2] | Mef2 activation after 24 hrs [3] | L:W ratio (length to width ratio) ([1]; hCT1 0.5 nM) [%] | RVID/LVID ratio, in words [4] | increase in RVLW thickness compared to control rats ([4]; ISO 1 mg/kg/day, subcutaneous minipump) [% fold increase] | Mef2 luciferase activity at 1 hr and 3 hr [3]
CNC[C@H](O)c1cccc(O)c1 [PE, Phenylephrine] | same or shortened L:W ratio | 171 | maintained their increased RVID/LVID ratio | increased heart weight to body weight ratio | retaining the substantial increase in wall thickness | significant decrease in cardiac capillary density | increase in (both) ventricle wall thickness | significant activation of Mef2 |  |  |  | 
hCT1: Recombinant human CT1 protein; 201 amino acid sequence, GenBank Accession Nos AAD12173 and AAA85229 (human) (protein, UniProt Q16619 1-201, looked up) Cardiotrophin-1: MSRREGSLEDPQTDSSVSLLPHLEAKIRQTHSLAHLLTKYAEQLLQEYVQLQGDPFGLPSFSPPRLPVAGLSAPAPSHAGLPVHERLRLDAAALAALPPLLDAVCRRQAELNPRAPRLLRRLEDAARQARALGAAVEALLAALGAANRGPRAEPPAATASAASATGVFPAKVLGLRVCGLYREWLSRTEGDLGQLLPGGSA |  | 162 |  |  | complete return to baseline cardiac dimensions for wall thickness |  | increase in (both) ventricle wall thickness | only NF-κB transcriptional activity was sustained | 172 | did not develop this pathologic state of cardiac hypertrophy | 12 | significant activation

— patent US9962427B2, “Treatment of right ventricular dysfunction due to pressure overload” (OTTAWA HOSPITAL RESEARCH INSTITUTE, priority 2016, dated 2018)
